Reference: ChEMBL document CHEMBL5696441 (Nat Chem Biol, 2011)
The source made the active and inactive calls. The rule behind the calls is not given here.

Assays:
[1] = biological target: Atypical kinase COQ8B, mitochondrial (Homo sapiens) (UniProt Q96D53); experiment: Inhibition of ADCK4 (unknown origin) assessed as remaining activity at 1 uM by Kinome scan method relative to control
[2] = system: Fibroblast growth factor receptor 3 (Homo sapiens), P22607 [G697C]; experiment: Inhibition of FGFR3 G697C mutant (unknown origin) assessed as remaining activity at 1 uM by Kinome scan method relative to control
[3] = system: Receptor-type tyrosine-protein kinase FLT3 (Homo sapiens), P36888 [D835H]; experiment: Inhibition of FLT3 D835H mutant (unknown origin) assessed as remaining activity at 1 uM by Kinome scan method relative to control
[4] = biological target: Mitogen-activated protein kinase kinase kinase 1 (Homo sapiens) (UniProt Q13233); experiment: Inhibition of MAP3K1 (unknown origin) assessed as remaining activity at 1 uM by Kinome scan method relative to control
[5] = biological target: Serine/threonine-protein kinase NIM1 (Homo sapiens) (UniProt Q8IY84); experiment: Inhibition of NIM1 (unknown origin) assessed as remaining activity at 1 uM by Kinome scan method relative to control
[6] = biological target: Ribosomal protein S6 kinase alpha-6 (Homo sapiens) (UniProt Q9UK32); experiment: Inhibition of C-terminal kinase domain RPS6KA6 (unknown origin) assessed as remaining activity at 1 uM by Kinome scan method relative to control
[7] = system: Tyrosine-protein kinase ABL1 (Homo sapiens), P00519 [G250E]; experiment: Inhibition of human ABL1 G250E mutant assessed as residual activity at 1 uM using Poly(Ala,Glu,Lys,Tyr)6:2:5:1 as substrate in presence of 33P-ATP by ProQinase assay relative to control
[8] = biological target: Serine/threonine-protein kinase B-raf (Homo sapiens) (UniProt P15056); experiment: Inhibition of human BRAF assessed as residual activity at 1 uM using MEK1-K97M as substrate in presence of 33P-ATP by ProQinase assay relative to control
[9] = system: Epidermal growth factor receptor (Homo sapiens), P00533 [UNDEFINED MUTATION]; experiment: Inhibition of human EGFR d747-749/A750P mutant assessed as residual activity at 1 uM using PolyEY as substrate in presence of 33P-ATP by ProQinase assay relative to control
[10] = system: Epidermal growth factor receptor (Homo sapiens), P00533 [UNDEFINED MUTATION]; experiment: Inhibition of human EGFR d752-759 mutant assessed as residual activity at 1 uM using PolyEY as substrate in presence of 33P-ATP by ProQinase assay relative to control
[11] = system: Epidermal growth factor receptor (Homo sapiens), P00533 [T790M]; experiment: Inhibition of human EGFR T790M mutant assessed as residual activity at 1 uM using PolyEY as substrate in presence of 33P-ATP by ProQinase assay relative to control
[12] = biological target: Ephrin type-A receptor 7 (Homo sapiens) (UniProt Q15375); experiment: Inhibition of human EPHA7 assessed as residual activity at 1 uM using polyEy as substrate in presence of 33P-ATP by ProQinase assay relative to control
[13] = system: Platelet-derived growth factor receptor alpha (Homo sapiens), P16234 [V561D]; experiment: Inhibition of human PDGFRalpha V561D mutant assessed as residual activity at 1 uM using PolyEY as substrate in presence of 33P-ATP by ProQinase assay relative to control
[14] = biological target: Rho-associated protein kinase 1 (Homo sapiens) (UniProt Q13464); experiment: Inhibition of human ROCK1 assessed as residual activity at 1 uM using 3xChocktide-PKC(19-31) as substrate in presence of 33P-ATP by ProQinase assay relative to control
[15] = biological target: Ribosomal protein S6 kinase beta-1 (Homo sapiens) (UniProt P23443); experiment: Inhibition of human S6K1 assessed as residual activity at 1 uM using RBER-GSK3(14-27) as substrate in presence of 33P-ATP by ProQinase assay relative to control
[16] = biological target: T1, Testis-specific serine/threonine-protein kinase 1 (Homo sapiens) (UniProt Q9BXA7); experiment: Inhibition of human TSSK1 assessed as residual activity at 1 uM using RBER-CHKtide as substrate in presence of 33P-ATP by ProQinase assay relative to control
T1 sequence (whole entry): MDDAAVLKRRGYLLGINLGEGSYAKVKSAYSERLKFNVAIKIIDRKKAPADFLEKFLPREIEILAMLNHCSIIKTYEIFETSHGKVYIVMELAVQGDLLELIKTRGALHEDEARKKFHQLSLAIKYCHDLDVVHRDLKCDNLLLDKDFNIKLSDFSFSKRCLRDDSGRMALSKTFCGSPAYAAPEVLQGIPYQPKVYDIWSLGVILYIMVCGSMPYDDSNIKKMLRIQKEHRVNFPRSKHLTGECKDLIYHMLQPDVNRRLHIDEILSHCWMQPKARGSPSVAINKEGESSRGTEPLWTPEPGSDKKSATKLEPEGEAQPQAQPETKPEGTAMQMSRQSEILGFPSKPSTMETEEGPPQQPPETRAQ

[17] = biological target: T2, Tyrosine-protein kinase TXK (Homo sapiens) (UniProt P42681); experiment: Inhibition of human TXK assessed as residual activity at 1 uM using RBER-CHKtide as substrate in presence of 33P-ATP by ProQinase assay relative to control
T2 sequence (whole entry): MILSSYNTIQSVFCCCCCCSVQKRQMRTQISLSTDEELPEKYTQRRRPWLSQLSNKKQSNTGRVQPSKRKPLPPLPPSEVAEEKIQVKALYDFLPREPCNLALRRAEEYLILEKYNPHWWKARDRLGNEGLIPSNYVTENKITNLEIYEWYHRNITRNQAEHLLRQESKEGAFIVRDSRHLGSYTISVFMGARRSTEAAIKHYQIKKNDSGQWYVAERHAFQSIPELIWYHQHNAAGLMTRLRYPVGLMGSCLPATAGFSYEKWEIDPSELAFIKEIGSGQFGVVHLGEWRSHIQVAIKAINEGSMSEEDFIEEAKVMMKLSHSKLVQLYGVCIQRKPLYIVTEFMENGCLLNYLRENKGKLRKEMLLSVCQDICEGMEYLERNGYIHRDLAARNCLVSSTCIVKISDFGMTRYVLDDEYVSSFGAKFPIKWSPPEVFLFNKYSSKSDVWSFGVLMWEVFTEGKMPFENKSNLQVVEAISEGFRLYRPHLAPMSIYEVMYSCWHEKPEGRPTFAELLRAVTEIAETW

[18] = biological target: Tyrosine-protein kinase ZAP-70 (Homo sapiens) (UniProt P43403); experiment: Inhibition of human ZAP70 assessed as residual activity at 1 uM using polyEY as substrate in presence of 33P-ATP by ProQinase assay relative to control
[19] = system: PBMC; experiment: Anti-inflammatory activity against human derived high respond PBMC cells assessed as increase in stimulated IL-12p70 cytokine release at 1 uM incubated for 2 hrs in the presence of LPS/SEB/aCD28 by Luminex based sandwich immunoassay; assay type: functional, cell-based
[20] = Anti-inflammatory activity against human derived medium respond PBMC cells assessed as inhibition in stimulated TARC chemokine release incubated for 2 hrs in the presence of LPS/SEB/aCD28 by Luminex based sandwich immunoassay; assay type: functional, cell-based

Chain of Mitogen-activated protein kinase kinase kinase 1 (Homo sapiens) (Q13233 whole entry): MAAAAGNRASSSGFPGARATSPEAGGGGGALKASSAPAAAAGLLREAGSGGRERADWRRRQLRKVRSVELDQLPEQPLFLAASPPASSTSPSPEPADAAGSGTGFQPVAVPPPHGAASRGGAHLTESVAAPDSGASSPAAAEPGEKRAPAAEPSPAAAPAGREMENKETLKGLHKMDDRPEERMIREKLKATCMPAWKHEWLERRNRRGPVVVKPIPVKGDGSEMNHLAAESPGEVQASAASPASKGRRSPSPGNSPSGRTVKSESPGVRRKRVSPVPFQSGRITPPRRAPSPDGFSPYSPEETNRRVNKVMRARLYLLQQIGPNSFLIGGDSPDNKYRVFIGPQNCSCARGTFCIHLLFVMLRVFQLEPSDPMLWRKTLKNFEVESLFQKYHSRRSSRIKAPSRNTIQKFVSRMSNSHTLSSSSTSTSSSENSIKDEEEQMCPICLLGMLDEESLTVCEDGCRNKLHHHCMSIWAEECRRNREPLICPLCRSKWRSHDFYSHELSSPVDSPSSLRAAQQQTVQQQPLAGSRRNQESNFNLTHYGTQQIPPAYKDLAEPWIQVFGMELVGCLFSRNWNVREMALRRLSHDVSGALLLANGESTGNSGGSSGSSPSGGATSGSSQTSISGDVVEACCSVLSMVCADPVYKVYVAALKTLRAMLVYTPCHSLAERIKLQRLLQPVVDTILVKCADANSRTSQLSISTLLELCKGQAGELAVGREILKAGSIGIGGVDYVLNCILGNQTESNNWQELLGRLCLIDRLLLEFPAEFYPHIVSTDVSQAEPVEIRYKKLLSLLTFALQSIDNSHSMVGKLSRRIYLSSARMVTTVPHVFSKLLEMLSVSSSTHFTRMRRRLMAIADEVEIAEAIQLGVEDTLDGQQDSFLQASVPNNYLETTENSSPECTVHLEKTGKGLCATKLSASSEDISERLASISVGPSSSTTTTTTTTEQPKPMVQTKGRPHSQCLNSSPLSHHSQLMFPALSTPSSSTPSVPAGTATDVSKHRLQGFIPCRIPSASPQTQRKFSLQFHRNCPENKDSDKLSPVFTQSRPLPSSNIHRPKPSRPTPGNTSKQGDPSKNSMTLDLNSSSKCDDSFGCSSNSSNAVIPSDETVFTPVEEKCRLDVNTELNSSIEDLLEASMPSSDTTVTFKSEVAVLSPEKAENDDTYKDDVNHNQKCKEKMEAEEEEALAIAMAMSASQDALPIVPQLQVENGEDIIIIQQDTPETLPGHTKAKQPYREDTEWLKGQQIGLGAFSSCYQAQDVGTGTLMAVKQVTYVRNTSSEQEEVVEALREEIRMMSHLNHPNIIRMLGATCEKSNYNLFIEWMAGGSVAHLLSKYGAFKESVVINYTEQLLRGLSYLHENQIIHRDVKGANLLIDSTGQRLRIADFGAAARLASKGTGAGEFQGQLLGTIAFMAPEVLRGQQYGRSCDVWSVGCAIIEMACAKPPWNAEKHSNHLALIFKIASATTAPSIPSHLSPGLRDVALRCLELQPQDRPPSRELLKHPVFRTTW
Chain of Atypical kinase COQ8B, mitochondrial (Homo sapiens) (Q96D53 whole entry): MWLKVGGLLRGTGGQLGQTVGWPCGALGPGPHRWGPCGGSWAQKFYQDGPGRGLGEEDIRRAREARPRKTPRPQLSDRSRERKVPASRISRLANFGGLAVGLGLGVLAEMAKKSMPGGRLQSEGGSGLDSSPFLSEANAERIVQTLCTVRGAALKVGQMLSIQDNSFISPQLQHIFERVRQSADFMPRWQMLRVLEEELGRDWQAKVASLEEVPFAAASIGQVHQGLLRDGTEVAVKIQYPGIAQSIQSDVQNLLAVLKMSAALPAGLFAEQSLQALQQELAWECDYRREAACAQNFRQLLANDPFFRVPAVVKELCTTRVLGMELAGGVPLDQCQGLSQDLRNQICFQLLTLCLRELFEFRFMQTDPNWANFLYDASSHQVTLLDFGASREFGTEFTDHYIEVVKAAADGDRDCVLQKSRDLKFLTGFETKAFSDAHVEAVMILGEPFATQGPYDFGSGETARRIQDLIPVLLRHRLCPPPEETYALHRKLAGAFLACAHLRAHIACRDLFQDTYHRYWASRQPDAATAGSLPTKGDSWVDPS
Chain of Tyrosine-protein kinase ZAP-70 (Homo sapiens) (P43403 whole entry): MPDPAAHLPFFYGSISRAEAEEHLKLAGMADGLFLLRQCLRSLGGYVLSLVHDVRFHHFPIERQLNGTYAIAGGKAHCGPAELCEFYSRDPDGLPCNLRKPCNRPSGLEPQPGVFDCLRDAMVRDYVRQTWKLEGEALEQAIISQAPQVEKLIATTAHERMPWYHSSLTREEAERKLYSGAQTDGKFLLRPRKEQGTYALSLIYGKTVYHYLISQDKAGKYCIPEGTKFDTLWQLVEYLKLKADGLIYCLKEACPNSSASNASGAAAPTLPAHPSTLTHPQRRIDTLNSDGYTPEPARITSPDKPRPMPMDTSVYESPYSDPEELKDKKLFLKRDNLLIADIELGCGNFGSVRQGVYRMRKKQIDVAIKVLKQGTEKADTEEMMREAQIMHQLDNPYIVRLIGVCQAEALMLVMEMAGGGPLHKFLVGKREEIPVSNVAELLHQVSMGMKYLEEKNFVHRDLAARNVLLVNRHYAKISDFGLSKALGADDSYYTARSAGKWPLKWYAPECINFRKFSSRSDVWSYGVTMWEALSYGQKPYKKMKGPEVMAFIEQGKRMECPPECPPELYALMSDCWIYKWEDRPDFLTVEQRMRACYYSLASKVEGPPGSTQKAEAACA
Chain of Ribosomal protein S6 kinase alpha-6 (Homo sapiens) (Q9UK32 whole entry, the tested form may be a part): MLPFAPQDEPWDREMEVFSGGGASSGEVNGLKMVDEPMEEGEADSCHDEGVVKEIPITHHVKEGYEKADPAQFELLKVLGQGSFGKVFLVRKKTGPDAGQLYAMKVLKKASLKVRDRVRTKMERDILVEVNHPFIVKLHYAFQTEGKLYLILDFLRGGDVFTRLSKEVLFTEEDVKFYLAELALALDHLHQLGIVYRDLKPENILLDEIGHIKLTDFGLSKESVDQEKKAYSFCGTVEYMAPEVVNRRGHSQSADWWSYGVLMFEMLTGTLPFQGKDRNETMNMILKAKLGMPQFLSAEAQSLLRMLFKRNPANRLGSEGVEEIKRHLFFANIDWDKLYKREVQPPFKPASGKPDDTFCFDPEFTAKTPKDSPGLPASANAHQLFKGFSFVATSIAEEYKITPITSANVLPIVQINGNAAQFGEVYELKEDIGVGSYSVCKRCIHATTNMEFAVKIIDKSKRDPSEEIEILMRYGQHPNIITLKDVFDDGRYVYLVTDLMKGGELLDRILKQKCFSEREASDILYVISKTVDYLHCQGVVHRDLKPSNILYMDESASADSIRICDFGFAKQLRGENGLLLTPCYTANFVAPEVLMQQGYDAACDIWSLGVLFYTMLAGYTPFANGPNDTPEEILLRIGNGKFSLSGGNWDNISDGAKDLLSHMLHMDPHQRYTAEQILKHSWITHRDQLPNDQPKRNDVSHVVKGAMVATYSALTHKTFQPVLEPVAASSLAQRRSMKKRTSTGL
Chain of Serine/threonine-protein kinase NIM1 (Homo sapiens) (Q8IY84 whole entry, the tested form may be a part): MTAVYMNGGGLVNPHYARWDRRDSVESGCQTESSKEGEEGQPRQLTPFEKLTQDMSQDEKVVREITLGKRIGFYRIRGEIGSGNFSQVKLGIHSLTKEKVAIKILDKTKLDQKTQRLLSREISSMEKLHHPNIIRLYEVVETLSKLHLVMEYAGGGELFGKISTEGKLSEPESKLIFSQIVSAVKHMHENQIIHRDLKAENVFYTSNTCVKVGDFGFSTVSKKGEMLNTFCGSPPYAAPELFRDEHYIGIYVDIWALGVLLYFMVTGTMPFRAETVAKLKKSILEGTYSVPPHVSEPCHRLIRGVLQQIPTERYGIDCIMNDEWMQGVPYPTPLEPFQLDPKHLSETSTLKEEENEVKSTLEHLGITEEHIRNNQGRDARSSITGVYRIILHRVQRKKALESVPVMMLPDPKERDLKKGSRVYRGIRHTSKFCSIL
Chain of Platelet-derived growth factor receptor alpha (Homo sapiens), P16234 [V561D] (P16234 whole entry V561D): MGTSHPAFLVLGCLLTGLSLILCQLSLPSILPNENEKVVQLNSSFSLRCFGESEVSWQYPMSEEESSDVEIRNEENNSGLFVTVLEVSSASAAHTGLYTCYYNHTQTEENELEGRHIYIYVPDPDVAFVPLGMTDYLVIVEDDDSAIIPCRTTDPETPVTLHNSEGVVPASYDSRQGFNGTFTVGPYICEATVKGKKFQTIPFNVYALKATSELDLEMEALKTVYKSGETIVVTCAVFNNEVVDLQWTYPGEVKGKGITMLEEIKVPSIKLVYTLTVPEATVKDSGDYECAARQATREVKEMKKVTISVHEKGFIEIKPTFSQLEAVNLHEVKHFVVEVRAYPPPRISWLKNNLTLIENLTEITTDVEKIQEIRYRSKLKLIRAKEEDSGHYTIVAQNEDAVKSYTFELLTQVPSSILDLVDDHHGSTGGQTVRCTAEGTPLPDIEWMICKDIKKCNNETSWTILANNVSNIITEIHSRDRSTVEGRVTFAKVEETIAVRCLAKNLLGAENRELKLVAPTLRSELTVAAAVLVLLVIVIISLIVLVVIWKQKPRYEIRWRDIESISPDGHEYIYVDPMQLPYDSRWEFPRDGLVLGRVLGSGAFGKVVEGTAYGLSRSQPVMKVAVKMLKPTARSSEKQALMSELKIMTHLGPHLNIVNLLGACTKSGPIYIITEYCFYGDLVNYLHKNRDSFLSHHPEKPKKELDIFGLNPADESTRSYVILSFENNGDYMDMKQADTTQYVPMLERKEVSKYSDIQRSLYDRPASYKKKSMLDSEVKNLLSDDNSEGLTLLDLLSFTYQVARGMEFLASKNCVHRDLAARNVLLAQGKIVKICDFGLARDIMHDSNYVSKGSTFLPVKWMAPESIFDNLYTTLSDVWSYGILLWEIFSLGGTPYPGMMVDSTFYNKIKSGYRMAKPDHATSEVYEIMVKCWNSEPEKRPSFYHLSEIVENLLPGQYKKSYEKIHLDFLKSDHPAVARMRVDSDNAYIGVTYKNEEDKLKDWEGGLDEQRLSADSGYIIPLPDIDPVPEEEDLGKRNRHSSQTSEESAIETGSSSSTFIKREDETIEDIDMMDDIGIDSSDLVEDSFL

O=C1c2ccc(Nc3ccc(F)cc3F)cc2CCc2ccc(OC[C@H](O)CO)cc21 [Skepinone-L]
Activity [1]: 100% | Activity [2]: 87% | Activity [3]: 88% | Activity [4]: 100% | Activity [5]: 100% | Activity [6]: 77% | Activity [7]: 97% | Activity [8]: 112% | Activity [9]: 96% | Activity [10]: 83% | Activity [11]: 119% | Activity [12]: 109% | Activity [13]: 91% | Activity [14]: 97% | Activity [15]: 85% | Activity [16]: 90% | Activity [17]: 93% | Activity [18]: 98% | Activity [19]: Active | IC50 [20]: Not Active
